Laboratory results: patent publication US7803821B2, “Fungicide N-cycloalkyl-carboxamide, thiocarboxamide and N-substituted-carboximidamide derivatives” (Bayer Cropscience SA, priority 2006, dated 2010)

Assay: log P by HPLC on reversed-phase column (C18), EEC Directive 79/831 Annex V.A8
Type: physicochemical
Conditions: C18, 40° C., 0.1% aqueous formic acid and acetonitrile, gradient 10% to 90% acetonitrile
Experimental: Temperature: 40° C.; Mobile phases: 0.1% aqueous formic acid and acetonitrile; linear gradient from 10% acetonitrile to 90% acetonitrile.

SMILES: Cc1nc(C(F)(F)F)c(C(=O)N(Cc2ncc(Cl)cc2Cl)C2CC2)s1 [Example 23]
- logP: 3.76
